Results published in ChEMBL document CHEMBL1133590, “Study on selectin blocker. 8. Lead discovery of a non-sugar antagonist using a 3D-pharmacophore model” (J Med Chem, 2000).

target: T1, E-selectin (Mus musculus, UniProt Q00690); assay: Evaluated for the inhibitory activity against Selectin E
T1 sequence (Q00690 whole entry): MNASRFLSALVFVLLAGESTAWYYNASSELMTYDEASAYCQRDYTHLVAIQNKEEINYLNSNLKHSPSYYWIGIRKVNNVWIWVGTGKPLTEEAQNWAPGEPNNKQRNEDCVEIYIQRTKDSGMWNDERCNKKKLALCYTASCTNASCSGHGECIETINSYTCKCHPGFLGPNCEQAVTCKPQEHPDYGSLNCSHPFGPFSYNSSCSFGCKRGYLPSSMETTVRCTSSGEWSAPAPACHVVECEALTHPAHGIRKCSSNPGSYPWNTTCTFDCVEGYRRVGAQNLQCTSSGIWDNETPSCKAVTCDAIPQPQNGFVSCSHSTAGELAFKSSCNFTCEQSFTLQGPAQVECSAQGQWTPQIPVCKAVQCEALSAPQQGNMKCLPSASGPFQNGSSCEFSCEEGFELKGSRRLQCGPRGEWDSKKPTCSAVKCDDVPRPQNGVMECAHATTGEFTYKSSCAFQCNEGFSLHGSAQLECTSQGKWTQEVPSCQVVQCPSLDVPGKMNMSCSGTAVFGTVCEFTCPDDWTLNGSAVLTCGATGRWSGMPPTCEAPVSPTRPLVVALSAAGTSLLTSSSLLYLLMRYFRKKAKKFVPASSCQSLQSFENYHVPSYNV

Row | SMILES | IC50 [µM]
1 | CCCCCCCCCCCCCCCCCC(=O)Nc1ccc(C(=O)Nc2cc(C(=O)O)ccc2Oc2cc(C(=O)O)cc(C(=O)O)c2)cc1 | > 500
2 | CCCCCCCCCCCCCCCCCC(=O)Nc1ccc(C(=O)CC(=O)Nc2cc(C(=O)O)ccc2Oc2cc(C(=O)O)cc(C(=O)O)c2)cc1 | 1200
3 | CC(=O)N[C@H]1[C@H]([C@H](O)[C@H](O)CO)O[C@@](O[C@H]2[C@@H](O)[C@@H](CO)O[C@@H](O[C@@H]([C@H](O[C@@H]3O[C@@H](C)[C@@H](O)[C@@H](O)[C@@H]3O)[C@H](C=O)NC(C)=O)[C@H](O)CO)[C@@H]2O)(C(=O)O)C[C@@H]1O [SIALYL LEWIS X] | 580

Compounds with a lower IC50, results first:

Row | IC50 [µM] | SMILES
4 | 13 | CCCCCCCCCCCCCCC(CCCCCCCCCCCCCC)C(=O)N[C@@H](CO[C@@H]1OC(C)[C@@H](O)[C@H](O)C1O)C(=O)N[C@H](CCC(=O)O)C(=O)NC (stereo not given in full)
5 | 86 | CCCCCCCCCCCCCCCCCC(=O)Nc1ccc(C(=O)Nc2cc(C(=O)O)ccc2Oc2cccc(C(=O)O)c2)cc1
